Source: patent publication EP3366286A1, “COMPOUNDS FOR TREATING SEPSIS” (Keller, Johannes, priority 2017, dated 2018)
“Also recorded” adds a separate entry of the source.

Assays:
[1] = system: WT mice; experiment: Survival after cecal ligation and puncture (CLP); type: in vivo; details: 100 mg/kg subcutaneous every 12h (Figure 5F)
Protocol: (§1) Nat Protoc 4, 31-36 (2009). Briefly, an approximately 1 cm abdominal midline incision was made, followed by exposure of the cecum. After ligation, the cecum was punctured three times through and through with a 19-gauge needle and a small portion of feces was pressed out. After repositioning of the bowel, the abdomen was closed in layers using surgical sutures and metallic clips, and 1 ml of 0.9% NaCl (37° Celsius) was slowly injected subcutaneously for resuscitation. For induction of lethal endotoxemia, mice received an intraperitoneal (ip) injection of 40 mg/kg LPS. Survival was monitored at least every 6 h for 7 days after which the experiments were terminated. For pharmacologic proof-of-principle experiments involving II17a, mice received 100 µg/kg PCT and/or 2.5 µg/kg antibody treatment ip 30 minutes before and 12h after induction of septic shock through 40 mg/kg LPS ip. Non-specific IgG was used at equal concentrations. Olcegepant (100 mg/kg) was administered intraperitoneally or subcutaneously as indicated. […]
(§2) The number of samples was chosen according to established standards providing sufficient statistical power to enable the detection of biologically relevant differences in animal models. Data were analyzed by two-tailed Student's t-test using Excel software. […]

[2] = system: WT mice; experiment: Serum cytokine levels (ELISA) after sublethal LPS challenge; type: in vivo; details: 10 h after 10 mg/kg LPS, single injection of 100 mg/kg ip (Figure 5D)
Protocol: as §1, with “indicated. For in vivo experiments involving expression, histological, and FACS analyses, mice were challenged with a sublethal dose of LPS (10 mg/kg ip).” for “indicated.”
Serum was obtained by cardiac puncture. […] Serum concentrations of PCT, CT and CGRP were measured by ELISA (Kamiya #KT-25866, Bachem #S-1488.0001 BA, S-1167.0001 BA).

[3] = system: WT mice; experiment: Survival in lethal endotoxemia (40 mg/kg LPS ip), monitored for 7 days; type: in vivo
Protocol: Nat Protoc 4, 31-36 (2009). Briefly, an approximately 1 cm abdominal midline incision was made, followed by exposure of the cecum. After ligation, the cecum was punctured three times through and through with a 19-gauge needle and a small portion of feces was pressed out. After repositioning of the bowel, the abdomen was closed in layers using surgical sutures and metallic clips, and 1 ml of 0.9% NaCl (37° Celsius) was slowly injected subcutaneously for resuscitation. For induction of lethal endotoxemia, mice received an intraperitoneal (ip) injection of 40 mg/kg LPS. Survival was monitored at least every 6 h for 7 days after which the experiments were terminated. For pharmacologic proof-of-principle experiments involving II17a, mice received 100 µg/kg PCT and/or 2.5 µg/kg antibody treatment ip 30 minutes before and 12h after induction of septic shock through 40 mg/kg LPS ip. Non-specific IgG was used at equal concentrations. Olcegepant (100 mg/kg) was administered intraperitoneally or subcutaneously as indicated. For in vivo experiments involving expression, histological, and FACS analyses, mice were challenged with a sublethal dose of LPS (10 mg/kg ip). The use of in vivo experiments, especially CLP, was kept to a minimum throughout the study (replace, reduce, refine) in accordance to current recommendations for animal welfare in sepsis research (Lilley 2015). Experimental procedures were performed with approval from the animal care committees of the University Medical Center Hamburg-Eppendorf and the Behörde für Umwelt und Gesundheit der Hansestadt Hamburg.
The number of samples was chosen according to established standards providing sufficient statistical power to enable the detection of biologically relevant differences in animal models. Data were analyzed by two-tailed Student's t-test using Excel software. In the case of multiple comparisons, Bonferroni correction was used. Survival analyses were performed using the log-rank-test. If not indicated otherwise, all data are reported as mean ± SD. p<0.05 was considered statistically significant.

[4] = system: αCgrp-deficient mice; experiment: Survival in lethal endotoxemia (40 mg/kg LPS ip); type: in vivo; details: 100 mg/kg ip immediately before 40 mg/kg LPS (Figure 5H)
Protocol: as §1, §2

[5] = system: Calca-deficient mice; experiment: Survival in lethal endotoxemia (40 mg/kg LPS ip); type: in vivo; details: 100 mg/kg ip co-administered with (immediately before) 40 mg/kg LPS ip (Figure 5G)
Protocol: as §1, §2

[6] = system: bone marrow-derived macrophages; experiment: Cytokine mRNA expression (qRT-PCR) in primary macrophages stimulated with LPS and/or PCT; type: cell-based, mouse; details: macrophages in vitro, LPS plus PCT, mRNA levels (Figure 5C)
Protocol: RNA was isolated using the RNeasyMini kit (Qiagen). For qRT-PCR expression analysis, 1 µg of RNA was reverse transcribed using SuperScriptIII (Invitrogen) according to the manufacturer's instructions. qRT-PCR analysis was performed using predesigned TaqMan gene expression assays (Applied Biosystems) and Gapdh as internal control.
Primary macrophages were generated from bone marrow cells cultured in DMEM supplemented 10% FCS and 40 ng/ml M-CSF for 7 days. Primary DC were generated from mouse bone marrow cells which were grown in RPMI 1640 medium with 10% FBS supplemented with 100 U/ml GM-CSF and 20 ng/ml IL-4 for 7 days. For γδT cell preparations, spleens were dissected and processed through a 40-µm filter, followed by lysis of erythrocytes. γδT lymphocytes were subsequently purified using magnetic labeled beads (Miltenyi Biotec, #130-092-125). For the generation of primary osteoblasts, bone marrow cells were differentiated for 10 days in the presence of 25 µg/ml ascorbic acid and 5 mM β-glycerophosphate as described previously (Keller, J., et al. Calcitonin controls bone formation by inhibiting the release of sphingosine 1-phosphate from osteoclasts. Nat Commun 5, 5215 (2014)). […]

In the case of NCCCC[C@H](NC(=O)[C@@H](Cc1cc(Br)c(O)c(Br)c1)NC(=O)N1CCC(N2Cc3ccccc3NC2=O)CC1)C(=O)N1CCN(c2ccncc2)CC1 [olcegepant, N-((1R)-2-(((1S)-5-amino-1-((4-(pyridin-4-yl)piperazin-1-yl)carbonyl)pentyl)amino)-1-(3,5-dibromo-4-hydroxybenzyl)-2-oxoethyl)-4-(2-oxo-1,4-dihydroquinazolin-3(2H)-yl)piperidine-1-carboxamide], the mortality [1] is reported as “significantly reduced”, the II1b levels [2] is reported as “significant reduction” and the II17a levels [2] is reported as “significant reduction”. For the same molecule, the mortality ([3]; 100 mg/kg ip immediately before 40 mg/kg LPS ip (Figure 5E)) was “significant reduction of mortality”, the survival ([3]; intermittent subcutaneous treatment 100 mg/kg every 12 hours, starting 4h after ip LPS challenge (Figure 5I)) was “significantly prolonged survival” and the mortality ([3]; single 100 mg/kg ip 4h after 40 mg/kg LPS ip, into the inflamed peritoneal cavity (Figure 12)) was “increased mortality; also recorded: decreased survival”. The survival ([3]; single subcutaneous injection 100 mg/kg 4h after ip LPS challenge (Figure 5I)) was “trend towards improved survival”, the survival ([3]; subcutaneous 4h before LPS (40 mg/kg ip), prophylactic (Figure 5J)) was “favorable effect” and the mortality rates [4] was “significantly improved mortality rates”. The survival [5] was “did not further improve the survival”, the “LPS-dependent stimulatory effect of PCT on II1b expression” value [6] was “inhibited” and the “LPS-dependent stimulatory effect of PCT on II6 expression” value [6] was “inhibited”.
